Values of other authors in patent US20030055013A1, “HCV combination therapy” (SCHERING CORPORATION, priority 2001, published 2003).

How the values were obtained:
[1] = test system: chronic childhood cholestasis; settings: 20-25 IU/kg/day (Sokool et al.)
[2] = per 1 mg (Goodman & Gilman)
[3] = stored between 2° and 8° C. and used within 24 hours of reconstitution
[4] = monotherapy, patients with chronic hepatitis C, prior studies
HIV patients = settings: higher doses, PO, Phase I/II clinical trials (PharmaProjects)

Row | Compound | potency of 1 mg in IU of Vitamin E [2] | further results
1 | d-alpha-tocopheryl polyethylene glycol 1000 succinate [Vitamin E-TPGS] | – | safety and efficacy in chronic childhood cholestasis [1]: safe and effective
2 | Cc1c(C)c2c(c(C)c1OC(=O)CCC(=O)O)CC[C@@](C)(CCC[C@H](C)CCC[C@H](C)CCCC(C)C)O2 [d-alpha tocopheryl succinate] | 1.21 IU | –
3 | CC(=O)Oc1c(C)c(C)c2c(c1C)CC[C@@](C)(CCC[C@H](C)CCC[C@H](C)CCCC(C)C)O2 (racemic) [dl-alpha tocopheryl acetate] | one | –
4 | Cc1c(C)c2c(c(C)c1O)CC[C@@](C)(CCC[C@H](C)CCC[C@H](C)CCCC(C)C)O2 [d-alpha tocopherol] | 1.49 IU | –
5 | interferon alfa | – | stability of reconstituted aqueous solutions [3]: stable
6 | NC(=O)c1ncn([C@@H]2O[C@H](CO)[C@@H](O)[C@H]2O)n1 [Ribavirin, ribavirin] | – | patients with reduction in hemoglobin of greater than 4 g/dL [4]: 15.7 % of patients
7 | CC(=O)Oc1c(C)c(C)c2c(c1C)CC[C@@](C)(CCC[C@H](C)CCC[C@H](C)CCCC(C)C)O2 [d-alpha tocopheryl acetate] | 1.36 IU | –
8 | CC(C)(Sc1cc(C(C)(C)C)c(O)c(C(C)(C)C)c1)Sc1cc(C(C)(C)C)c(O)c(C(C)(C)C)c1 [Panavia, 4,4′-isopropylidenedithiobis-2,6-di-t-butylphenol] | – | CD4 levels (HIV patients): stablized or slightly stabilized
